Test results as given in article PMC10141620 (Viruses, 2023).
Values joined by “and” are separate entries in the source; they are usually repeats but may differ in a detail not shown here. Equal entries are not always repeated.

Assays:
Type in all cases: cell-based
[1] = system: SARS-CoV-2 Brazil (Gamma: K417T/E484K/N501Y) pseudovirus
[2] = system: SARS-CoV-2 mutant (D614G) and variants of concern (VOC) pseudoviruses; conditions: read-out: IC50, range over all variant pseudoviruses
[3] = system: SARS-CoV-2 USA-WA1/2020 D614G pseudovirus

SMILES	IC50 [1]	IC50 [2]	IC50 [3]
Cc1cc2nc3s/c(=C/c4ccc(-c5cccc(C(=O)O)c5)o4)c(=O)n3c2cc1C [NBCoV63]	45.5 nM and 77.5 nM	34 to 96 nM and 26 to 105 nM	42.5 nM and 40.8 nM
Cc1ccc2nc3s/c(=C/c4coc(-c5ccc(Cl)c(C(=O)O)c5)c4)c(=O)n3c2c1 [NBCoV35]	292 nM and 506 nM		266 nM and 195 nM
Cc1cc(C)c2nc3s/c(=C\c4ccc(-c5ccc(Cl)c(C(=O)O)c5)o4)c(=O)n3c2c1 [NBCoV37]		82 to 267 nM and 42.5 to 311 nM	311 nM and 157 nM
O=C(O)c1cc(-c2ccc(/C=c3\sc4nc(=O)c5c6c(sc5n4c3=O)CCCC6)o2)ccc1Cl [NBCoV36]		181 to 1180 nM and 129 to 332 nM	
